Source: PubChem BioAssay (NCI)
Values joined by “and” are separate entries in the source; they are usually repeats but may differ in a detail not shown here. Equal entries are not always repeated.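 Each compound was tested at five concentrations against cells in 96-well plates for 48 hours. GI50: concentration for 50% inhibition of growth. TGI: concentration producing complete growth inhibition.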

Tests used:
Assay in all cases: NCI tumour cell line growth inhibition, 48 h
[1] = test system: MDA-MB-231 breast
[2] = test system: SF-268 CNS
[3] = test system: A549 NSCLC
[4] = test system: MALME-3M melanoma
[5] = test system: A498 renal
[6] = test system: SNB-75 CNS
[7] = test system: COLO 205 colon
[8] = test system: SN12C renal
[9] = test system: M14 melanoma
[10] = test system: CCRF-CEM leukemia

SMILES	GI50 [1]	TGI [1]	GI50 [2]	TGI [2]	GI50 [3]	TGI [3]	GI50 [4]	TGI [4]	GI50 [5] [µM]	TGI [5]	GI50 [6] [µM]	TGI [6]	GI50 [7]	TGI [7]	GI50 [8] [µM]	TGI [8]	GI50 [9]	TGI [9]	GI50 [10]	TGI [10] [µM]
CN(C)C[C@H]1CCn2c(c(C3=C(c4cn(C)c5ccccc45)C(=O)NC3=O)c3ccccc32)C1	3.96 µM	10.3 µM	4.71 µM	9.04 µM	5.11 µM	11.7 µM	4.24 µM	8.56 µM	3.84	9.08 µM	0.562	5.16 µM	3.71 µM	7.5 µM	4.39	9.66 µM	4.49 µM	8.47 µM	4.46 µM	12.4
O=C(Nc1ccc2ncnc(Nc3ccc(Oc4cccc(F)c4)c(Cl)c3)c2c1)c1ccc(CN2CCOCC2)cc1	2.68 µM	9.03 µM	2.6 µM	18.1 µM	2.35 µM	10.3 µM	2.01 µM	5.2 µM	3.28	65.6 µM	1.97	9.22 µM	2.56 µM	8.34 µM	2.6	> 100 µM	2.03 µM	4.68 µM	2.95 µM	20.7
CCC#CC[C@H](O)C/C=C1/C(=O)C=C[C@@H]1C/C=C\CCCC(=O)OC	1.95 µM	7.78 µM	2.05 µM	9.22 µM	1.6 µM	5.52 µM	1.88 µM	8.42 µM	6.82	13.7 µM	5.07	13.4 µM	1.14 µM	2.86 µM	1.77	8.12 µM	1.32 µM	5.12 µM	0.413 µM	5.66
Nc1ncn(C2OC(COP(=O)(O)O)C(O)C2O)c(=O)n1 (centres undefined)	–	> 100 µM	–	> 100 µM	–	> 100 µM	–	> 100 µM	–	> 100 µM	–	> 100 µM	–	> 100 µM	–	> 100 µM	–	> 100 µM	–	> 52.4
O=C1NC(O)c2ccccc2O1 (centres undefined)	–	> 100 µM	–	> 100 µM	–	> 100 µM	–	> 100 µM	–	> 100 µM	–	> 100 µM	–	> 100 µM	–	> 100 µM	–	> 100 µM	–	> 100
C=C1C(=O)O[C@H]2[C@H]1CC/C(COC(=O)c1cn(C)c3ccccc13)=C\CC[C@@]1(C)O[C@@H]21	1.05 µM	2.47 µM	1.3 µM	2.86 µM	1.82 µM	4.23 µM	1.62 µM	3.34 µM	1.59	3.05 µM	1.09	2.32 µM	1.24 µM	2.59 µM	0.719	2.3 µM	1.41 µM	3.3 µM	0.217 µM	0.94
c1cc(CN2CCCNCCNCCCNCC2)ccc1CN1CCCNCCNCCCNCC1	> 100 µM	> 100 µM	> 100 µM	> 100 µM	> 100 µM	> 100 µM	> 100 µM	> 100 µM	> 100	> 100 µM	> 100	> 100 µM	> 100 µM	> 100 µM	> 100	> 100 µM	> 100 µM	> 100 µM	> 100 µM	> 100
O=P(O)(O)OCC1OC(n2cnc3c(NCc4ccco4)ncnc32)C(O)C1O (centres undefined)	0.479 µM	13.9 µM	3.62 µM	> 79.6 µM	2.73 µM	> 37.8 µM	5.09 µM	40.9 µM	3.32	11.7 µM	4.18	> 30.6 µM	2.12 µM	9.88 µM	0.989	> 37.2 µM	3.55 µM	> 41 µM	0.315 µM	1.14
CN(C)C(=S)/N=c1\ssc(=S)n1Cc1cccs1	–	> 100 µM	–	> 100 µM	–	> 91.4 µM	–	74.7 µM	–	> 100 µM	–	15.2 µM	–	6.41 µM	–	> 100 µM	–	> 100 µM	–	> 60.2
CCCCC[C@H]1CC=C2C(=O)C=C[C@@H]2CC=CCCCC(=O)O[C@@H](CCCCC)CC=C2C(=O)C=C[C@@H]2CC=CCCCC(=O)O[C@@H](CCCCC)CC=C2C(=O)C=C[C@@H]2CC=CCCCC(=O)O1	0.249 µM	0.697 µM	0.305 µM	7.8 µM	0.529 µM	2.12 µM	0.295 µM	> 8.75 µM	0.75	2.41 µM	4.8	> 8.75 µM	0.169 µM	0.368 µM	0.277	> 8.75 µM	0.279 µM	1.79 µM	0.251 µM	> 8.75
C[C@]12CC[C@@H]3c4ccc(O)cc4CC[C@H]3[C@@H]1CC[C@@H]2NS(=O)(=O)c1cccc(Cl)c1	2.44 µM	7.75 µM	3.23 µM	13.6 µM	3.22 µM	12.7 µM	2.36 µM	6.75 µM	1.56	5.19 µM	2.25	9.01 µM	1.81 µM	3.31 µM	1.8	3.8 µM	2.34 µM	6.35 µM	2.94 µM	14.4
C=C1C(=O)O[C@H]2[C@H]1CC/C(Cn1cc(Cc3c[nH]c4ccccc34)nn1)=C\CC[C@@]1(C)O[C@@H]21	1.72 µM	3.48 µM	1.7 µM	3.27 µM	8.63 µM	23.5 µM	1.63 µM	3.07 µM	3.9	14.3 µM	3.08	12.5 µM	1.83 µM	3.75 µM	1.98	4.42 µM	1.31 µM	3.07 µM	0.718 µM	5.92
COc1cccc(Sc2ccc([N+](=O)[O-])c3no[n+]([O-])c23)c1	11.2 µM	28 µM	12.5 µM	30 µM	36.1 µM	> 100 µM	4.67 µM	15 µM	15.7	34.6 µM	13.9	39.4 µM	2.49 µM	7.31 µM	16.9	46.8 µM	14.3 µM	33.9 µM	2.6 µM	8.14
Clc1ccccc1[C@@H]1C[C@@H]2Cc3cc(Br)c4ccccc4c3N1O2	10.4 µM	> 100 µM	5.02 µM	> 100 µM	4.91 µM	> 100 µM	4.83 µM	> 100 µM	3.79	60.2 µM	3.51	> 100 µM	3.95 µM	74 µM	8.71	> 100 µM	3.74 µM	> 100 µM	4.87 µM	> 100
CCN(CC)CCC(=O)OC1C(C)=CC(C)C(=O)CC(C(C)CC2CCC(O)C(OC)C2)OC(=O)C2CCCCN2C(=O)C(=O)[C@@]2(O)OC(CCC2C)CC(OC)\C(C)=C/C=C/C=C/C(C)CC(C)C(=O)C1OC (some centres undefined)	–	26.7 µM	–	20.5 µM	–	16.6 µM	–	18.8 µM	–	17.6 µM	–	0.971 µM	–	24.6 µM	–	21.1 µM	–	22.6 µM	–	13.8
COc1cc(OC)c(/C=C/C(=O)c2ccc(Nc3ncnc4ccccc34)cc2)c(OC)c1	1.43 µM	4.11 µM	1.37 µM	4.4 µM	0.665 µM	3.76 µM	0.799 µM	2.65 µM	0.282	2.13 µM	0.305	1.55 µM	0.614 µM	2.22 µM	1.66	10 µM	0.575 µM	2.5 µM	0.629 µM	5.51
O=C1NC(=O)[C@@]2(CC[C@@H](O)C2)c2ccncc21	–	> 100 µM	–	> 100 µM	–	> 100 µM	–	> 100 µM	–	> 100 µM	–	> 100 µM	–	> 100 µM	–	> 100 µM	–	> 100 µM	–	> 100
COC1CC(C)C(OC)c2cc(O)cc(c2O)NC(=O)/C(C)=C/C=C\C(C)C(OC(N)=O)/C(C)=C\C(C)C1OC (centres undefined)	0.291 µM and 0.243 µM and 1.16 µM	10.3 µM and 8.54 µM	0.693 µM and 0.279 µM	21.1 µM and 11 µM	0.435 µM and 1.84 µM	27.6 µM and 21.1 µM	0.749 µM and 0.503 µM	4.89 µM and 7.39 µM	18.4	38.1 µM and 14.8 µM	0.245	18.2 µM and 3.42 µM	0.0414 µM and 0.0785 µM	7.12 µM and 2.8 µM	–	15.1 µM and 8.7 µM	0.267 µM and 1.27 µM	18.7 µM and 10.5 µM	0.0356 µM and 0.148 µM	–
COc1ccc(-c2nsc3c2NC(=O)CC3c2ccc3c(c2)OCCO3)cc1 (centres undefined)	1.59 µM	> 100 µM	1.92 µM	> 100 µM	0.603 µM	> 100 µM	0.336 µM	> 100 µM	0.212	1.03 µM	0.22	> 100 µM	0.431 µM	2.18 µM	0.776	> 100 µM	0.397 µM	> 100 µM	0.406 µM	> 100
COc1cccc(-n2ncc3c(N/N=C/c4ccc(C)cc4)ncnc32)c1	> 25 µM	> 25 µM	> 25 µM	> 25 µM	> 25 µM	> 25 µM	24.1 µM	> 25 µM	> 5.43	> 25 µM	> 25	> 25 µM	9.56 µM	> 25 µM	> 25	> 25 µM	> 25 µM	> 25 µM	> 25 µM	> 25
COC12C=C/C(=C(/C(=O)OCCSc3ccnn3C)C(=O)CCCCCCCCC3(OC)C=C/C(=C(/C(=O)OCCSc4ccnn4C)C(=O)CCCCCCCC1)O3)O2	1.05 µM	3.06 µM	1.15 µM	> 32.5 µM	0.882 µM	2.66 µM	0.776 µM	2.32 µM	0.645	2.2 µM	0.999	4.9 µM	0.814 µM	2.15 µM	1.05	5.64 µM	0.873 µM	2.4 µM	1.09 µM	> 32.5
c1ccc2cc(Cn3cc[n+](Cc4ccc5ccccc5c4)c3)ccc2c1	0.729 µM	2.53 µM	1.28 µM	11.1 µM	7.97 µM	22.9 µM	0.413 µM	2.49 µM	0.0254	4.69 µM	0.328	2.91 µM	0.4 µM	1.67 µM	0.846	7.03 µM	1.43 µM	8.34 µM	1.61 µM	11
Cc1cn(CCC(N)C(=O)O)c(=O)[nH]c1=O (centres undefined)	–	> 100 µM	–	> 100 µM	–	> 100 µM	–	> 100 µM	–	> 100 µM	–	> 100 µM	–	> 100 µM	–	> 100 µM	–	> 100 µM	–	> 100
Cc1ccc(-c2c(C#N)[n+](=O)c3cc(F)c(F)cc3n2[O-])cc1	1.81 µM	3.98 µM	14.3 µM	30 µM	28.2 µM	86 µM	2.06 µM	5.23 µM	21.1	36.5 µM	19.2	34.6 µM	19.5 µM	38.6 µM	2.61	8.56 µM	2.18 µM	5.73 µM	1.6 µM	4.41
COC1(OC)C2(Cl)C(Cl)=C(Cl)C1(Cl)C1c3ccc(C(C)=O)c4cccc(c34)C12 (centres undefined)	–	> 100 µM	–	> 100 µM	–	> 100 µM	–	58 µM	–	32.1 µM	–	> 89.9 µM	–	34.8 µM	–	> 100 µM	–	> 96.4 µM	–	> 79.2
CC(CN1CC(=O)NC(=O)C1)N1CC(=O)NC(=O)C1 (centres undefined)	–	> 750 µM	–	> 750 µM	–	> 750 µM	–	355 µM	–	> 750 µM	–	> 715 µM	25.3 µM	443 µM	–	> 750 µM	–	> 750 µM	–	> 662
COc1ccc(C(C#N)=C2C=CC(=NO)C=C2)cc1	12.6 µM	35.3 µM	3.81 µM	14.2 µM	16.5 µM	39.8 µM	12.4 µM	27.5 µM	6.39	25.4 µM	5.3	18.9 µM	15.3 µM	30 µM	12.5	27.6 µM	6.09 µM	19.6 µM	2.76 µM	> 100
